Measured values taken from patent US20250302903A1, “COMPOSITION FOR PREVENTION AND TREATMENT OF MUSCLE DISEASE, CONTAINING MAGNOLIA OFFICINALIS EXTRACT AS ACTIVE INGREDIENT” (TWINPIGBIOLAB INC., priority 2022, published 2025).

Assays:
[1] = tested on: mouse colon cancer cell line CT26; test: Anti-tumor activity of cisplatin in the CT26 colon cancer-bearing mouse model; format: in vivo; details: cisplatin alone; CT26 s.c. 3×10^5 per mouse
Experimental: To confirm whether administration of the Magnolia officinalis extract interfered with the anti-tumor activity of cisplatin, a mouse colon cancer cell line CT26 (Korean Cell Line Bank, 80009; Seoul, Korea) was injected subcutaneously at 3×10^5 per mouse to fabricate a colon cancer-bearing mouse model, and then treated with cisplatin or cisplatin+Magnolia officinalis extract (200 mg/kg), and the size (volume) and weight of tumor were measured every 3 days.

[2] = tested on: cisplatin-induced sarcopenia mouse model; test: Leg weight and tibialis anterior (TA) muscle mass on day 42, cisplatin-induced skeletal muscle wasting; format: in vivo, mice (C57BL/6); details: vs cisplatin group
Experimental: In order to confirm an effect of a Magnolia officinalis extract on cisplatin-induced skeletal muscle wasting, the leg weight and tibialis anterior (TA) muscle mass of each group were measured on day 42 of the experiment.

[3] = tested on: cells expressing both CD68 and IGF-1; test: Immunohistochemistry of CD68 and IGF-1 in TA muscle sections; format: in vivo, mice (C57BL/6); details: per image area
Experimental: It was confirmed whether […], which shifted the polarization of a macrophage phenotype from M2a to M2c (macrophages involved in extracellular matrix remodeling and muscle healing), and the number of macrophages were affected in skeletal muscle by administration of a Magnolia officinalis extract. Specifically, the TA muscle tissue sections of Example 4-3 were incubated overnight with a primary antibody, rat anti-mouse CD68 antibody (1:250; MCA1957GA; Bio-Rad, Contra Costa County, CA, USA) and rabbit anti-mouse IGF-1 antibody (1:500; 40657; Abcam, Cambridge, UK), and then incubated for 30 minutes with a secondary antibody, Alexa Fluor 488-conjugated goat anti-rat immunoglobulin IgG (A11006; Invitrogen, Carls-bad, CA, USA) and Alexa Fluor 594-conjugated goat anti-rabbit IgG (A32740; Invitrogen, Carlsbad, CA, USA). Thereafter, the sections were mounted using mounting media containing 4′,6-diamidino-2-phenylindole (DAPI) (H-1200, Vector, Torrance, CA, USA), and then imaged under a confocalator microscope (FV10C-PSU; Olympus Corporation, Tokyo, Japan). In the captured images, the numbers of IGF-I (red), CD68 (macrophage) (green), and DAPI (blue) positive cells per image area were measured in at least five random fields.

[4] = tested on: cisplatin-induced sarcopenia mouse model; test: Grip strength (forelimb and all limbs) by digital force gauge; format: in vivo, mice (C57BL/6); details: M.C 100 and 200 mg/kg; magnolol 10 mg/kg i.p.
Experimental: To determine the effect of the Magnolia officinalis extract on cisplatin-induced grip strength reduction, muscle strength of all limbs and muscle strength of forelimb were measured using a digital force gauge (DS2-5N; IMADA Inc., Northbrook, IL, USA). The muscle strength was measured by pulling the mouse's tail downward 5times and recording the peak tension when the mouse released its foot, and repeated 3 times at 10-minute intervals, and the average of 5 values was used for calculation.

[5] = tested on: cisplatin-induced sarcopenia mouse model
Experimental: Specifically, mice (C57BL/6, 7 to 8 weeks old) (Jackson Laboratories, Raon Bio, Gyeonggi) were randomly caged and raised in a regulated environment with free access to food and water with a 12-hour light/dark cycle, and then on days 1 to 5 and days 26 to 30, cisplatin (Sigma-Aldrich, P4394; St. Louis, MO, USA) (2.5 mg/kg) dissolved at 1 mg/mL in physiological saline was injected intraperitoneally once daily (sarcopenia mouse model), M.C (50, 100 and 200 mg/kg) were administered orally every 3 days (total of 12 times).

Row | SMILES | tumor growth (size and weight) [1] | TA muscle mass reduction induced by cisplatin [2] | leg weight reduction induced by cisplatin [2] | number of cells expressing both CD68 and IGF-1 [3] | pulling force power (grip strength) compared to the cisplatin administered group [4] | cisplatin-induced rapid weight loss (body weight, A of FIG. 2) ([5]; M.C 50, 100 and 200 mg/kg orally every 3 days (12 times), magnolol 10 mg/kg i.p. every 3 days, vs CIS+PBS) | changes in weight on the last and first days (B of FIG. 2) ([5]; M.C orally or magnolol 10 mg/kg i.p. vs cisplatin group)
1 | N.N.[Cl][Pt][Cl] [cisplatin] | significantly reduced tumor growth | – | – | – | – | – | –
2 | C=CCc1ccc(O)c(-c2cc(CC=C)ccc2O)c1 [magnolol] | – | significantly alleviated | significantly alleviated | increased | significantly increased | significantly alleviated | significant reduction in weight loss
